One may read the inhibition as the relative decrease from the control value, in per cent. For orientation: IC50 means the concentration at which inhibition is half-maximal.

Some results are limits rather than exact numbers.

Inhibition and IC50 data for 30 molecules are collected here from patent US9029389B2 (Institut Pasteur Korea, priority 2011, dated 2015).

This test concerns the target T1, Human 5-lipoxygenase (Homo sapiens, UniProt P09917).
T1 construct: purchased Cayman 60402; host or cells: insect cells
T1 sequence (P09917 1-674): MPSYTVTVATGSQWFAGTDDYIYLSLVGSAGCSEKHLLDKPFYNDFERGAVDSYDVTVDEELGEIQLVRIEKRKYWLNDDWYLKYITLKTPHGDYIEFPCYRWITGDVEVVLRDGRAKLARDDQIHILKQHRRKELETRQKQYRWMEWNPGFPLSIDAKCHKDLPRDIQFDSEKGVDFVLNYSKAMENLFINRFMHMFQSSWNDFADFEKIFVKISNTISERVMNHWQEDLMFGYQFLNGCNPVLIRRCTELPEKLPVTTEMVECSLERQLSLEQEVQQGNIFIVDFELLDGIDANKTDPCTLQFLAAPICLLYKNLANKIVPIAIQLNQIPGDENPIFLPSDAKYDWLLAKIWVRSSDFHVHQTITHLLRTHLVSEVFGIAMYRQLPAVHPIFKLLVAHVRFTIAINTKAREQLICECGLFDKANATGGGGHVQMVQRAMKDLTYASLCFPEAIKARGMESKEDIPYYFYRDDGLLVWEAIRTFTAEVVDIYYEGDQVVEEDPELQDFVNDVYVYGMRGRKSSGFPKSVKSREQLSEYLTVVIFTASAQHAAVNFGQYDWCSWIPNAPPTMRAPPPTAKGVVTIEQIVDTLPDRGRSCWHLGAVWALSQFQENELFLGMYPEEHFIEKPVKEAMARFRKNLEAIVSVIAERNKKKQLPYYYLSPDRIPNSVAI
Kind of test: Activity of compounds against 5-LO enzyme (LTB4 measurement and/or fluorescence method). In kind it is biochemical. The following applies: for inhibition at 10 µM: 5-LO, single concentration of 10 uM in duplicate. In a few lines:
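Two read-outs: LTB4 measured by EIA and/or LC/MS/MS with LTB4-d4 standard after 15 min RT compound preincubation with insect-cell 5-LO and a 5 min 37 °C reaction on 3 uM arachidonic acid (0.1 mM ATP, pH 7.4). The room-temperature fluorescence format used 20 uM H2DCFDA, 100 uM ATP, 3 uM arachidonic acid, 5 min; IC50 from 6/11-point curves.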

`CCc1nc2cc(Cl)ccn2c1C(=O)NCc1ccc(N2CCOCC2)c(Cl)c1` [compound 303, 7-Chloro-N-(3-chloro-4-morpholinobenzyl)-2-ethylimidazo[1,2-a]pyridine-3-carboxamide]: the inhibition at 10 µM was less than 40%.

Consider `CCc1nc2ccc(Cl)cn2c1C(=O)NCc1ccc(N2CCC(C(=O)O)CC2)cc1` [compound 307, 1-(4-((6-Chloro-2-ethylimidazo[1,2-a]pyridine-3-carboxamido)methyl)phenyl)piperidine-4-carboxylic acid], for which the inhibition at 10 µM is less than 40%. Still for that read-out and setting: the value for `CCc1nc2ccc(Cl)cn2c1C(=O)NCc1ccc(N2CCC(Oc3ccc(F)cc3)CC2)cc1` [compound 308, 6-Chloro-2-ethyl-N-(4-(4-(4-fluorophenoxy)piperidin-1-yl)benzyl)imidazo[1,2-a]pyridine-3-carboxamide] was 40 to 69%; that for `CCc1nc2ccc(C)cn2c1C(=O)NCc1ccc(N2CCOCC2)cc1` [compound 315, 2-ethyl-6-methyl-N-(4-morpholinobenzyl)imidazo[1,2-a]pyridine-3-carboxamide] was less than 40%; that for `CCc1nc2ccc(Cl)cn2c1C(=O)NCc1ccc(N2CCC(NC(=O)Cc3ccc(F)cc3)CC2)cc1` [compound 316, 6-chloro-2-ethyl-N-(4-(4-(2-(4-fluorophenyl)acetamido)piperidin-1-yl)benzyl)imidazo[1,2-a]pyridine-3-carboxamide] was less than 40%.

For `CCc1nc2ccc(Cl)cn2c1C(=O)NCc1ccc(N2CCC(OCc3ccccc3)CC2)cc1` [compound 317, N-(4-(4-(benzyloxy)piperidin-1-yl)benzyl)-6-chloro-2-ethylimidazo[1,2-a]pyridine-3-carboxamide], the inhibition at 10 µM was less than 40%.

In the case of `CCc1nc2ccc(Cl)cn2c1C(=O)NCc1ccc(N2CCC(NC(=O)c3ccc(F)cc3)CC2)cc1` [compound 318, 6-chloro-2-ethyl-N-(4-(4-(4-fluorobenzamido)piperidin-1-yl)benzyl)imidazo[1,2-a]pyridine-3-carboxamide], the inhibition at 10 µM was less than 40%. In turn, `CCc1nc2ccc(Cl)cn2c1C(=O)NCc1ccc(N2CCN(C(=O)c3ccc(F)cc3)CC2)cc1` [compound 319, 6-chloro-2-ethyl-N-(4-(4-(4-fluorobenzoyl)piperazin-1-yl)benzyl)imidazo[1,2-a]pyridine-3-carboxamide] yielded an inhibition at 10 µM of less than 40%. The same measure, in the same setting: the value for `CCc1nc2ccc(Cl)cn2c1C(=O)NCc1ccc(N2CCN(C(=O)Cc3ccc(F)cc3)CC2)cc1` [compound 320, 6-chloro-2-ethyl-N-(4-(4-(2-(4-fluorophenyl)acetyl)piperazin-1-yl)benzyl)imidazo[1,2-a]pyridine-3-carboxamide] was less than 40%. In turn, `CCc1nc2ccc(Cl)cn2c1C(=O)NCc1ccc(N2CCC(C)(O)CC2)cc1` [compound 321, 6-chloro-2-ethyl-N-(4-(4-hydroxy-4-methylpiperidin-1-yl)benzyl)imidazo[1,2-a]pyridine-3-carboxamide] showed an inhibition at 10 µM of less than 40%. In the case of `CCc1nc2ccc(Cl)cn2c1C(=O)NCc1ccc(N2CCC(O)(C(C)(C)C)CC2)cc1` [compound 322, N-(4-(4-(tert-butyl)-4-hydroxypiperidin-1-yl)benzyl)-6-chloro-2-ethylimidazo[1,2-a]pyridine-3-carboxamide], the inhibition at 10 µM was less than 40%. The same measure, in the same setting: the value for `CCc1nc2ccc(Cl)cn2c1C(=O)NCc1ccc(N2CCC(C(=O)c3ccc(F)cc3)CC2)cc1` [compound 323, 6-chloro-2-ethyl-N-(4-(4-(4-fluorobenzoyl)piperidin-1-yl)benzyl)imidazo[1,2-a]pyridine-3-carboxamide] was less than 40%. For the molecule `CCc1nc2ccc(Cl)cn2c1C(=O)NCc1ccc(N2CCC(C(=O)c3ccc(OC(F)(F)F)cc3)CC2)cc1` [compound 324, 6-chloro-2-ethyl-N-(4-(4-(4-(trifluoromethoxy)benzoyl)piperidin-1-yl)benzyl)imidazo[1,2-a]pyridine-3-carboxamide], the inhibition at 10 µM was greater than 69%. Turning to `CCc1nc2ccc(Cl)cn2c1C(=O)NCc1ccc(N2CCC(C(=O)Cc3ccc(F)cc3)CC2)cc1` [compound 325, 6-chloro-2-ethyl-N-(4-(4-(2-(4-fluorophenyl)acetyl)piperidin-1-yl)benzyl)imidazo[1,2-a]pyridine-3-carboxamide], the inhibition at 10 µM is less than 40%. `CCc1nc2ccc(Cl)cn2c1C(=O)NCc1ccc(C2CCN(C(=O)c3ccc(F)cc3)CC2)cc1` [compound 326, 6-chloro-2-ethyl-N-(4-(1-(4-fluorobenzoyl)piperidin-4-yl)benzyl)imidazo[1,2-a]pyridine-3-carboxamide] had an inhibition at 10 µM of less than 40%. `CCc1nc2ccc(Cl)cn2c1C(=O)NCc1ccc(N2CCC(O)(c3ccccc3)CC2)cc1` [compound 328, 6-chloro-2-ethyl-N-(4-(4-hydroxy-4-phenylpiperidin-1-yl)benzyl)imidazo[1,2-a]pyridine-3-carboxamide] had an inhibition at 10 µM of less than 40%.

`CCc1nc2ccc(Cl)cn2c1C(=O)NCc1ccc(/C=C/c2ccc(F)cc2)cc1` [compound 329, (E)-6-chloro-2-ethyl-N-(4-(4-fluorostyryl)benzyl)imidazo[1,2-a]pyridine-3-carboxamide] displayed an inhibition at 10 µM of less than 40%. `CCc1nc2ccc(Cl)cn2c1C(=O)N1CCC(OCc2ccccc2)CC1` [compound 330, (4-(benzyloxy)piperidin-1-yl)(6-chloro-2-ethylimidazo[1,2-a]pyridin-3-yl)methanone] yielded an IC50 (6 or 11 point dose response in duplicate) greater than 20 µM. In turn, `CCc1nc2ccc(Cl)cn2c1C(=O)N1CCC(OCc2ccc(C)cc2)CC1` [compound 331, (6-chloro-2-ethylimidazo[1,2-a]pyridin-3-yl)(4-((4-methylbenzyl)oxy)piperidin-1-yl)methanone] came in with an inhibition at 10 µM of less than 40%. `CCc1nc2ccc(Cl)cn2c1C(=O)N1CCC(OCc2ccc(Cl)cc2)CC1` [compound 332, (6-chloro-2-ethylimidazo[1,2-a]pyridin-3-yl)(4-((4-chlorobenzyl)oxy)piperidin-1-yl)methanone]: the inhibition at 10 µM is less than 40%.

The molecule `CCc1nc2ccc(Cl)cn2c1C(=O)N1CCC(OCc2ccc(F)cc2)CC1` [compound 333, (6-chloro-2-ethylimidazo[1,2-a]pyridin-3-yl)(4-((4-fluorobenzyl)oxy)piperidin-1-yl)methanone] registered an inhibition at 10 µM of less than 40%. Take `CCc1nc2ccc(Cl)cn2c1C(=O)N1CCC(OCc2ccc(C(F)(F)F)cc2)CC1` [compound 334, (6-chloro-2-ethylimidazo[1,2-a]pyridin-3-yl)(4-((4-(trifluoromethyl)benzyl)oxy)piperidin-1-yl)methanone]: the inhibition at 10 µM is less than 40%. Molecule `CCc1nc2ccc(Cl)cn2c1C(=O)N1CCC(OCc2ccc(OC)cc2)CC1` [compound 335, (6-chloro-2-ethylimidazo[1,2-a]pyridin-3-yl)(4-((4-methoxybenzyl)oxy)piperidin-1-yl)methanone] returned an inhibition at 10 µM of less than 40%.

Molecule `CCc1nc2ccc(Cl)cn2c1C(=O)N1CCC(OCc2cccc(F)c2)CC1` [compound 336, (6-chloro-2-ethylimidazo[1,2-a]pyridin-3-yl)(4-((3-fluorobenzyl)oxy)piperidin-1-yl)methanone] had an inhibition at 10 µM of less than 40%. Still for that read-out and setting: the value for `CCc1nc2ccc(Cl)cn2c1C(=O)N1CCC(OCc2ccccc2F)CC1` [compound 337, (6-chloro-2-ethylimidazo[1,2-a]pyridin-3-yl)(4-((2-fluorobenzyl)oxy)piperidin-1-yl)methanone] was less than 40%. The same measure, in the same setting: the value for `CCc1nc2ccc(Cl)cn2c1CNCc1ccc(F)cc1` [compound 338, 1-(6-chloro-2-ethylimidazo[1,2-a]pyridin-3-yl)-N-(4-fluorobenzyl)methanamine] was less than 40%; that for `CCc1nc2ccc(Cl)cn2c1CNCc1ccc(N(C)C)cc1` [compound 339, 4-((((6-chloro-2-ethylimidazo[1,2-a]pyridin-3-yl)methyl)amino)methyl)-N,N-dimethylaniline] was less than 40%.

The molecule `CCc1nc2ccc(Cl)cn2c1CNCc1ccc(N2CCC(O)CC2)cc1` [compound 340, 1-(4-((((6-chloro-2-ethylimidazo[1,2-a]pyridin-3-yl)methyl)amino)methyl)phenyl)piperidin-4-ol] returned an inhibition at 10 µM of less than 40%. Same read-out and setting: the value for `CCc1nc2ccc(Cl)cn2c1CNCc1ccc(N2CCC(OCc3ccccc3)CC2)cc1` [compound 341, N-(4-(4-(benzyloxy)piperidin-1-yl)benzyl)-1-(6-chloro-2-ethylimidazo[1,2-a]pyridin-3-yl)methanamine] was 40 to 69%; that for `CCc1nc2ccc(Cl)cn2c1CNCCc1ccccn1` [compound 342, N-((6-chloro-2-ethylimidazo[1,2-a]pyridin-3-yl)methyl)-2-(pyridin-2-yl)ethanamine] was less than 40%.
